Results on 13 compounds are retold here after US20240208978A1, “IDH MUTANT INHIBITOR AND USE THEREOF” (WIGEN BIOMEDICINE TECHNOLOGY (SHANGHAI) CO., LTD., priority 2021, published 2024).

The target in one data set is T1, IDH1 R132C (Homo sapiens, UniProt O75874, R132C).
T1 construct: endogenous in cells; host or cells: HT1080
In words: Detection of 2-HG in supernatant of HT1080 cells carrying IDH1 R132C. The data set is classed as cell-based. The conditions noted are these: 72 h, LC-MS-MS. Here is the method:
(§1) U87MG cells overexpressing the mIDH1 R132H mutation or HT1080 cells carrying IDH1 R132C were seeded in a 48-well plate and a 96-well plate at 50,000 cells/well and 10,000 cells/well, respectively. After the cells were incubated overnight for adhesion, the supernatants were removed. The cell culture media containing serially diluted compounds were added, and the cells were incubated for 72 h. After 72 h, the culture media were collected and diluted 10-fold and 20-fold with water, respectively. Acetonitrile was added to extract the metabolites. The 2-HG content in the culture media was analyzed by LC-MS-MS. The percentage inhibition and IC50 of the compounds on 2-HG in the supernatant were calculated as compared with the control group.

Data set [1] in a line: Stability test of human liver microsomes. Format: in vitro ADME. Particulars: 1 μM compound, 500 μg/ml human liver microsomes, NADPH regeneration system, 37° C.; read-out: Liver microsomal stability T1/2, Human. Here is the method:
(§2) After the 1 μM compound was incubated with 500 μg/ml of human or mouse liver microsomes and a NADPH regeneration system at 37° C. for different times, respectively, LC-MS-MS was used to analyze the remaining amount of the compound and calculate T1/2.
For orientation: Liver microsomes are vesicles of endoplasmic reticulum, rich in cytochrome P450 enzymes.

A short description of data set [2]: Stability test of mouse liver microsomes. The data set is classed as in vitro ADME. Particulars: 1 μM compound, 500 μg/ml mouse liver microsomes, NADPH regeneration system, 37° C.; read-out: Liver microsomal stability T1/2, Mouse. Here is the method:
as §2

In another data set the target is T2, mIDH1 R132H (Homo sapiens, UniProt O75874, R132H).
T2 construct: expressed in transfected cells; host or cells: U87MG
In words: Detection of 2-HG in supernatant of U87-IDH1 R132H cells. Format: cell-based. The conditions noted are these: U-87 MG, 72 h, U87MG cells overexpressing mIDH1 R132H, LC-MS-MS; for inhibition at 0.001 µM: 1 nM compound, read-out: Inhibition rate on 2-HG in the supernatant of U87-IDH R132H cells, 1 nM; for inhibition at 0.01 µM: 10 nM compound, read-out: Inhibition rate on 2-HG in the supernatant of U87-IDH R132H cells, 10 nM; for inhibition at 0.1 µM: 100 nM compound, read-out: Inhibition rate on 2-HG in the supernatant of U87-IDH R132H cells, 100 nM. Here is the method:
as §1

T2 sequence (O75874 whole entry R132H): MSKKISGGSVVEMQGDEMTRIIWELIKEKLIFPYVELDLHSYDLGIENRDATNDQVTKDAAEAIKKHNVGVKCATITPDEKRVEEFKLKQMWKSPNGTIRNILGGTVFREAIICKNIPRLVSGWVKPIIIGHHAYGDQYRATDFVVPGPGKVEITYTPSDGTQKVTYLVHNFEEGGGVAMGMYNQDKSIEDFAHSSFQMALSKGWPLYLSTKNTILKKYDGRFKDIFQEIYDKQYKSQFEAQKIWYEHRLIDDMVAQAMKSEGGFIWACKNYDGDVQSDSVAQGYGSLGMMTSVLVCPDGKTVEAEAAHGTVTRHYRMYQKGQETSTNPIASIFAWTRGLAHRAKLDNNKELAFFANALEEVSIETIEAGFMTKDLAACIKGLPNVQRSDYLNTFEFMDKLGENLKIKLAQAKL
T1 sequence (O75874 whole entry R132C): as the sequence (O75874 whole entry R132H) above, with H132C counted along it

One may read the IC50 as the concentration that gives 50% inhibition. `C=CC(=O)N1CCN([C@H](CC2CC2)c2ccc([C@H](C)Nc3ncc4[nH]c(=O)n(C(C)C)c4n3)cc2)CC1` [Compound 3-2] showed a concentration for half-maximal inhibition (IC50) at IDH1 R132C of 2.36 nM.

The compound `C=CC(=O)N1CCN([C@@H](CC2CC2)c2ccc([C@H](C)Nc3ncc4[nH]c(=O)n(CC)c4n3)cc2)CC1` [Compound 1-1] showed an IC50 against IDH1 R132C of 2.24 nM. For the same compound, the half-life at 1 μM in data set [1] turned out to be 11.3 min; in data set [2], 4.4 min.

As for `C=CC(=O)N1CCN([C@@H](CC2CC2)c2ccc([C@H](C)Nc3ncc4[nH]c(=O)n(C5CC5)c4n3)cc2)CC1` [Compound 4-1], the concentration for half-maximal inhibition (IC50) against IDH1 R132C came out at 11.5 nM.

In general, inhibition refers to how much of the control response was suppressed. `C=CC(=O)N1CCN([C@@H](CC2CC2)c2ccc([C@H](C)Nc3ncc4c(n3)N(CC)C(=O)OC4)cc2)CC1` [LY-3410738, reference compound]: on IDH1 R132C, it took 1.9 nM to reach half-maximal inhibition (IC50). Besides, at mIDH1 R132H, the inhibition at 0.001 µM lay within 30 to 60%, the inhibition at 0.01 µM was greater than 90% and the inhibition at 0.1 µM is greater than 90%. Besides, the half-life at 1 μM in data set [1] was determined as 1.8 min. Besides, in data set [2], the half-life at 1 μM turned out to be 1.6 min.

In turn, `C=CC(=O)N1CCN([C@@H](CC2CC2)c2ccc([C@H](C)Nc3ncc4[nH]c(=O)n(C5CCC5)c4n3)cc2)CC1` [Compound 5-1] gave a concentration for half-maximal inhibition (IC50) at IDH1 R132C of 2.63 nM.

On IDH1 R132C, `C=CC(=O)N1CCN(C(CC2CC2)c2ccc([C@H](C)Nc3ncc4[nH]c(=O)n(CC)c4n3)cc2)CC1` (stereo partly drawn) [Compound 1, 2-(((1S)-1-(4-(1-(4-acryloylpiperazin-1-yl)-2-cyclopropylethyl)phenyl)ethyl)amino)-9-ethyl-7,9-dihydro-8H-purin-8-one] came in with an IC50 of 4.48 nM. At mIDH1 R132H, the inhibition at 0.001 µM was in the range of 60 to 90%, the inhibition at 0.01 µM is greater than 90% and the inhibition at 0.1 µM was greater than 90%.

At IDH1 R132C, `C=CC(=O)N1CCN([C@@H](CC2CC2)c2ccc([C@H](C)Nc3ncc4[nH]c(=O)n(C(C)C)c4n3)cc2)CC1` [Compound 3-1] displayed a half-maximal inhibitory concentration (IC50) of 1.22 nM. For the same compound, the half-life at 1 μM is 5 min in data set [1] and 4 min in data set [2].

At IDH1 R132C, `C=CC(=O)N1CCN(C(CC2CC2)c2ccc([C@H](C)Nc3ncc4[nH]c(=O)n(C(C)C)c4n3)cc2)CC1` (some centres unmarked) [Compound 3] displayed a half-inhibitory concentration (IC50) of 2.06 nM. In addition, at mIDH1 R132H, the inhibition at 0.001 µM was 30 to 60%, the inhibition at 0.01 µM was greater than 90% and the inhibition at 0.1 µM is greater than 90%.

On IDH1 R132C, `C=CC(=O)N1CCN(C(CC2CC2)c2ccc(C(C)Nc3ncc4[nH]c(=O)n(C5CCCC5)c4n3)cc2)CC1` (centres unmarked) [Compound 6-1] returned a concentration for half-maximal inhibition (IC50) of 3.22 nM. Besides, the values for the half-life at 1 μM in data set [1] and in data set [2] were 4.4 min and 3.9 min, respectively.

For the compound `C=CC(=O)N1CCN(C(CC23CC(C2)C3)c2ccc([C@H](C)Nc3ncc4[nH]c(=O)n(C(C)C)c4n3)cc2)CC1` (some centres unmarked) [Compound 33], at mIDH1 R132H, the inhibition at 0.001 µM was in the range of 60 to 90%, the inhibition at 0.01 µM was greater than 90% and the inhibition at 0.1 µM was greater than 90%.

For `C=CC(=O)NC1CCN(C(CC2CC2)c2ccc([C@H](C)Nc3ncc4[nH]c(=O)n(CC)c4n3)cc2)CC1` (some centres unmarked) [Compound 26], on mIDH1 R132H, the inhibition at 0.001 µM is 60 to 90%, the inhibition at 0.01 µM was in the range of 60 to 90% and the inhibition at 0.1 µM was greater than 90%.

For `C=CC(=O)N1CCN(C2(c3ccc([C@H](C)Nc4ncc5[nH]c(=O)n(CC)c5n4)cc3)CCCC2)CC1` [Compound 15], at mIDH1 R132H, the inhibition at 0.001 µM was 30 to 60%, the inhibition at 0.01 µM is greater than 90% and the inhibition at 0.1 µM is greater than 90%.

With `C=CC(=O)N1CCC2(CC1)CN(C(CC1CC1)c1ccc([C@H](C)Nc3ncc4[nH]c(=O)n(CC)c4n3)cc1)C2` (some centres unmarked) [Compound 20], at mIDH1 R132H, the inhibition at 0.001 µM lay in the range of 30 to 60%, the inhibition at 0.01 µM lay within 60 to 90% and the inhibition at 0.1 µM is greater than 90%.
